From paper PMC13408523, “Psoralen and Seselin Stabilize the α-helix Structure in Lysozyme and Inhibit the α-helix to β-sheet Exchange: An Efficient Anti-Amyloidogenic Mechanism” (Advanced Pharmaceutical Bulletin, 2025)
Where two headings read alike, the source gives them in different places.

Target: T1, hen egg white lysozyme (HEWL) (Gallus gallus, UniProt P00698)
T1 construct: gene LYZ
Test: SPR (HEWL amine-coupled on CMD gold chip, […]°C); intrinsic fluorescence quenching
Assay type: binding

T1 sequence (P00698 19-147): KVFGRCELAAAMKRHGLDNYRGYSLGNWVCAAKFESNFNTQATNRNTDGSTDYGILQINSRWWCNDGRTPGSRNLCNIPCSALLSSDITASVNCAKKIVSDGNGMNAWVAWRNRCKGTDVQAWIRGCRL

Row | Kd (read-out: Kd) [µM] | SMILES | Kd [µM]
1 |  | O=c1ccc2cc3ccoc3cc2o1 [psoralen] | 9.32
2 | 46.8 | CC1(C)C=Cc2c(ccc3ccc(=O)oc23)O1 [seselin] | 
